Data taken from the supplement of paper PMC8967900.

How the values were obtained:
Assay in all cases: selective drug sensitivity score (sDSS, relative to normal bone marrow) (sDSS (score)); higher = more potent and effective on the cell line relative to normal bone marrow cells
Conditions in all cases: 72 h
697 = tested on: 697
CCRF-HSB2 = tested on: CCRF-HSB2
COG-LL-319h = tested on: COG-LL-319h
COG-LL-332h = tested on: COG-LL-332h
COG-LL-402h = tested on: COG-LL-402h
DND-41 = tested on: DND-41
HPB-ALL = tested on: HPB-ALL
JURKAT = tested on: JURKAT
KASUMI-10 = tested on: KASUMI-10
LC4-1 = tested on: LC4-1
MHH-CALL-3 = tested on: MHH-CALL-3
MOLT-14 = tested on: MOLT-14
MOLT-16 = tested on: MOLT-16
MOLT-4 = tested on: MOLT-4
NALL-1 = tested on: NALL-1
P12-ICHIKAWA = tested on: P12-ICHIKAWA
PF-382 = tested on: PF-382
RCH-ACV = tested on: RCH-ACV
REH = tested on: REH
TANOUE = tested on: TANOUE
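Further: ALL cell lines in 384-well plates, five doses spanning 10,000-fold, each plate scaled between vehicle and 100 µmol/L benzalkonium chloride controls, sDSS an adapted area-under-curve metric.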

SMILES | selective drug sensitivity score 697 | selective drug sensitivity score (CCRF-HSB2) | selective drug sensitivity score (COG-LL-319h) | selective drug sensitivity score (COG-LL-332h) | selective drug sensitivity score (COG-LL-402h) | selective drug sensitivity score (DND-41) | selective drug sensitivity score (HPB-ALL) | selective drug sensitivity score (JURKAT) | selective drug sensitivity score (KASUMI-10) | selective drug sensitivity score (LC4-1) | selective drug sensitivity score (MHH-CALL-3) | selective drug sensitivity score (MOLT-14) | selective drug sensitivity score (MOLT-16) | selective drug sensitivity score (MOLT-4) | selective drug sensitivity score (NALL-1) | selective drug sensitivity score (P12-ICHIKAWA) | selective drug sensitivity score (PF-382) | selective drug sensitivity score (RCH-ACV) | selective drug sensitivity score (REH) | selective drug sensitivity score (TANOUE)
Cc1cnc(Nc2ccc(OCCN3CCCC3)cc2)nc1Nc1cccc(S(=O)(=O)NC(C)(C)C)c1 [Fedratinib] (top concentration 10000 nM) | -0.76 | 0.54 | 4.64 | -2.26 | 1.24 | 3.94 | 0.14 | -2.06 | 4.94 | -0.36 | 2.54 | -0.06 | -1.06 | -2.86 | -1.56 | -2.56 | -3.06 | -1.06 | -2.76 | -7.06
COc1ccc(-c2nc(N3CCOCC3)c3sc(CN(C)c4ncc(C(=O)NO)cn4)cc3n2)cn1 [Fimepinostat (CUDC-907)] (top concentration 10000 nM) | 9.88 | 1.68 | -3.82 | 1.08 | 10.9 | 4.68 | -4.02 | 0.98 | 9.18 | 8.68 | 10.9 | 9.18 | 8.68 | 5.28 | -3.42 | 5.18 | 2.58 | 10.9 | 2.78 | -14.8
CCOC(=O)CCNc1cc(N2CCc3ccccc3CC2)nc(-c2ccccn2)n1 [GSK-J4] (top concentration 100000 nM) | -8.08 | -7.18 | 3.22 | -7.08 | -7.88 | -6.88 | 1.62 | -5.98 | -11.8 | -9.58 | -13.2 | -3.98 | -5.48 | -7.98 | -9.18 | -7.68 | -7.58 | -8.58 | -7.88 | -11.6
Cc1cc(Nc2cc(CN3CCOCC3)c3nc(C)c(Cc4ccc(Cl)cc4F)n3n2)n[nH]1 [Gandotinib] (top concentration 10000 nM) | 5.28 | 5.98 | 8.68 | 2.18 | 5.28 | 7.28 | 1.58 | 3.98 | 7.28 | 6.98 | 1.18 | 3.18 | 5.68 | 4.88 | 4.88 | -0.62 | 1.88 | 8.88 | 4.98 | -7.72
NC(=O)NO [Hydroxyurea] (top concentration 1000000 nM) | 12.8 | 6.66 | 9.26 | 12.5 | 1.56 | 1.16 | -1.24 | 3.16 | 1.86 | 5.26 | -4.44 | 9.16 | 5.76 | 1.56 | -3.74 | 6.46 | 1.26 | 9.66 | 4.06 | -3.94
Cc1ccc(NC(=O)c2ccc(CN3CCN(C)CC3)cc2)cc1Nc1nccc(-c2cccnc2)n1 [Imatinib] (top concentration 10000 nM) | 1.06 | 7.96 | 0.06 | 10.2 | -0.44 | 0.26 | 1.06 | 0.66 | -0.44 | 0.36 | -0.44 | 0.46 | 0.46 | -0.34 | -0.44 | 0.16 | -0.24 | 2.16 | 0.56 | -0.44
CC(C)NC[C@@H](C(=O)N1CCN(c2ncnc3c2[C@H](C)C[C@H]3O)CC1)c1ccc(Cl)cc1 [Ipatasertib] (top concentration 10000 nM) | 2.9 | 0.3 | 2.4 | 5.8 | 7.3 | 1.1 | 0.9 | 7.1 | 0.7 | -0.6 | 0.2 | -1.8 | 10.9 | 7.1 | 1.8 | 2.9 | 4.2 | 12 | 13.2 | -1.8
CCC(C)n1ncn(-c2ccc(N3CCN(c4ccc(OCC5COC(Cn6cncn6)(c6ccc(Cl)cc6Cl)O5)cc4)CC3)cc2)c1=O (stereo not given) [Itraconazole] (top concentration 5000 nM) | 0.18 | 2.08 | 10.7 | 2.48 | -2.12 | 6.98 | 5.68 | 1.58 | -4.32 | 2.88 | -4.32 | -1.02 | 2.38 | -1.92 | -4.12 | -0.32 | 0.38 | 5.48 | -4.32 | -2.92
